Laboratory results from patent publication US20150307520A1, “NOVEL HETEROARYL AND HETEROCYCLE COMPOUNDS, COMPOSITIONS AND METHODS THEREOF” (HUTCHISON MEDIPHARMA LIMITED, priority 2012, published 2015).

How the values were obtained:
[1] = target: p110β/p85α (Homo sapiens, UniProt P42338); experiment: Transcreener KINASE Assay, kinase inhibition of p110β/p85α; format: biochemical; conditions: for PI3Kβ IH % @ 1 uM: 1 uM test compound; for IC50: read-out: PI3Kβ IC50
Outline: (§1)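 ADP formation read by far-red competitive FP immunoassay (60 min RT detection step) after an 80 min RT kinase reaction; substrate added as a 30 uM PIP2/10 uM ATP solution (not final).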

[2] = target: PI3Kγ (Mus musculus, UniProt Q9JHG7); experiment: Acumen Assay - Raw264.7 p-AKT Assay (C5a stimulated); format: cell-based; conditions: Raw264.7 macrophage cells, compound 30 min, stimulated with 10 nM C5a for 5 min, p-AKT (Ser473) readout; read-out: PI3Kγ cell-C5a Raw264.7 IC50
Description: Acumen Assay—Raw264.7 p-AKT Assay
Acumen® eX3 (A Multilaser Microplate Cytometer For Enhanced High Content Screening): TTP LabTech
3×10^4 Raw264.7 macrophage cells were seeded into 96-well plates with DMEM+10% heat-inactivated FBS at […], 90 ul/well, overnight. After starvation for 3 hr at 37° C. under 5% CO2, Raw264.7 cells were treated with 10 ul/well various concentrations of compound or 0.5% DMSO for 30 min, and then stimulated with 10 ul/well 10 nM C5a for 5 min.
1.) Cells were fixed 110 μL of 4% pre-warmed Paraformaldehyde (2% final), incubate for 45 min at room temperature. 2.) Remove paraformaldehyde solution. Add 100 μL of ice-cold 0.1% Triton X-100 in PBS and leave at 4° C. for 30 min. 3.) Wash once in 100 μL PBS. 4.) Incubate with 100 μL blocking buffer (1% BSA, in PBS) for 2 hours at room temperature. 5.) Wash once for 5 min with 100 ul PBS. 6.) Incubate with 40 μL 1:200 dilution of phospho AKT (Ser473) rabbit antibody in antibody dilution buffer (0.1% BSA, in PBS) overnight at 4° C. 7.) Wash for 3 times for 10 min with 100 ul PBS. 8.) Incubate for 90 min at room temperature with 50 μL of goat anti-rabbit Alex488 antibody at a 1:1,000 dilution in antibody dilution buffer (0.1% BSA, in PBS). Cover plate in foil to keep out of light. 9.) Wash for 3 times for 10 min with 100 μL PBS. 10.) Add 50 μL of 1.5 μM Propidium Iodide solution to each well to determine cell number at a 1:1,000 dilution in PBS (stock: 1.5 mM). 11.) Incubate at room temperature for 30 min. 12.) Seal the plate with a black cover-seal (supplied with plate). 13.) Load the plate into the Acumen Explorer and scan with the appropriate instrument settings.

[3] = target: p110δ/p85α (Homo sapiens, UniProt O00329); experiment: Transcreener KINASE Assay, kinase inhibition of p110δ/p85α; format: biochemical; conditions: for PI3Kδ IH % @ 1 uM: 1 uM test compound; for IC50: read-out: PI3Kδ IC50
Chain of p110δ/p85α (O00329 whole entry): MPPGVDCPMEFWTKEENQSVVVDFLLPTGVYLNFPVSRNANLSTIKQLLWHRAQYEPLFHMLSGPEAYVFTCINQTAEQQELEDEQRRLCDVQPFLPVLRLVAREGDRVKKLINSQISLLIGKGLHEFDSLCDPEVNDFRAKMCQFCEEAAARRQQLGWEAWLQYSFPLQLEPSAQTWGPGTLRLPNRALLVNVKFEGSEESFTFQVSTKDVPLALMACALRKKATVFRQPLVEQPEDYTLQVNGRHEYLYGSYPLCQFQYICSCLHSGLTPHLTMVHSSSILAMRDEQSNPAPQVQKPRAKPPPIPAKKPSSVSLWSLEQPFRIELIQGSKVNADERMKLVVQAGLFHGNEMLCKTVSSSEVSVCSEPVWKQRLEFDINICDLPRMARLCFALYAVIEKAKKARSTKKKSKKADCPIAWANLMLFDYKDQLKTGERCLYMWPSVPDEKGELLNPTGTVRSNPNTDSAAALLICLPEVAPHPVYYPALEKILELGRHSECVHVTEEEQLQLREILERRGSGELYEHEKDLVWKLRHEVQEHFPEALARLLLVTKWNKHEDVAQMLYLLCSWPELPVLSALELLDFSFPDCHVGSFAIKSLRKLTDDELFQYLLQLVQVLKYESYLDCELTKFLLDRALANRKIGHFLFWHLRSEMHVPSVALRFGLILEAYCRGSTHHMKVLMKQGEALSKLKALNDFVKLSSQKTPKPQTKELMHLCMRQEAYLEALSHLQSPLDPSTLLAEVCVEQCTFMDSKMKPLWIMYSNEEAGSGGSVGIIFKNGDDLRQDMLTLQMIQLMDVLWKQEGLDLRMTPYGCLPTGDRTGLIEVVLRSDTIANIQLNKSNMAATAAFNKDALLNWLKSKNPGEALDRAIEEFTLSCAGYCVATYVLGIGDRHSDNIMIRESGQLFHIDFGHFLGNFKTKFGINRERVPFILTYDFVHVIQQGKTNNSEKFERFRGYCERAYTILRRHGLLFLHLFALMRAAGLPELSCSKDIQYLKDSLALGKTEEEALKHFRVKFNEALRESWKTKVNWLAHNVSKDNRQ
Chain of p110δ/p85α (P27986 whole entry partner): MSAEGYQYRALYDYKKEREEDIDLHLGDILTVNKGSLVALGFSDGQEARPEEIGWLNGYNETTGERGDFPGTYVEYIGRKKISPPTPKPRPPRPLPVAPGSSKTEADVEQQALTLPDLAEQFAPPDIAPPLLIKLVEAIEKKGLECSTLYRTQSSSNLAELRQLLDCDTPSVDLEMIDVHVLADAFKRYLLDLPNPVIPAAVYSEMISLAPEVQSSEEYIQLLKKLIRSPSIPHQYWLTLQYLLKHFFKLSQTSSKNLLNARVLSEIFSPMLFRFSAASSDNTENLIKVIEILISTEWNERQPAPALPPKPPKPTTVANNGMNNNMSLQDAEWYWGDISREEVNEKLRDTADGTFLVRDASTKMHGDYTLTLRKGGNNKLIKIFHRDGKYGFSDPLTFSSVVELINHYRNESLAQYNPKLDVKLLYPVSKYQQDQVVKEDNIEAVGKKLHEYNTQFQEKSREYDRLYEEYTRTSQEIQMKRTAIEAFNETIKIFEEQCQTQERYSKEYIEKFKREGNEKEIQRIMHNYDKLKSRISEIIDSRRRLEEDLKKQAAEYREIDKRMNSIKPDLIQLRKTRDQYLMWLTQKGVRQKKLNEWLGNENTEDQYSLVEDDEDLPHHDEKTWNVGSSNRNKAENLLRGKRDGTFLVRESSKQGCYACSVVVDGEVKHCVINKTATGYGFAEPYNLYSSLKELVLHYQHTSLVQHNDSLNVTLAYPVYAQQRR
Outline: as §1

[4] = target: p110γ (Homo sapiens, UniProt P48736); experiment: Transcreener KINASE Assay, kinase inhibition of p110γ; format: biochemical; conditions: for PI3Kγ IH % @ 1 uM: 1 uM test compound; for IC50: read-out: PI3Kγ IC50
Outline: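 Steps: enzyme reaction with compound, 80 min at room temperature; add ADP detection reagent, incubate 60 min at room temperature; read fluorescence polarization. Inhibition and IC50 values are derived from the ADP signal.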

[5] = target: p110α/p85α (Homo sapiens, UniProt P42336); experiment: Transcreener KINASE Assay, kinase inhibition of p110α/p85α; format: biochemical; conditions: for PI3Kα IH % @ 1 uM: 1 uM test compound
Chain of p110α/p85α (P42336 whole entry): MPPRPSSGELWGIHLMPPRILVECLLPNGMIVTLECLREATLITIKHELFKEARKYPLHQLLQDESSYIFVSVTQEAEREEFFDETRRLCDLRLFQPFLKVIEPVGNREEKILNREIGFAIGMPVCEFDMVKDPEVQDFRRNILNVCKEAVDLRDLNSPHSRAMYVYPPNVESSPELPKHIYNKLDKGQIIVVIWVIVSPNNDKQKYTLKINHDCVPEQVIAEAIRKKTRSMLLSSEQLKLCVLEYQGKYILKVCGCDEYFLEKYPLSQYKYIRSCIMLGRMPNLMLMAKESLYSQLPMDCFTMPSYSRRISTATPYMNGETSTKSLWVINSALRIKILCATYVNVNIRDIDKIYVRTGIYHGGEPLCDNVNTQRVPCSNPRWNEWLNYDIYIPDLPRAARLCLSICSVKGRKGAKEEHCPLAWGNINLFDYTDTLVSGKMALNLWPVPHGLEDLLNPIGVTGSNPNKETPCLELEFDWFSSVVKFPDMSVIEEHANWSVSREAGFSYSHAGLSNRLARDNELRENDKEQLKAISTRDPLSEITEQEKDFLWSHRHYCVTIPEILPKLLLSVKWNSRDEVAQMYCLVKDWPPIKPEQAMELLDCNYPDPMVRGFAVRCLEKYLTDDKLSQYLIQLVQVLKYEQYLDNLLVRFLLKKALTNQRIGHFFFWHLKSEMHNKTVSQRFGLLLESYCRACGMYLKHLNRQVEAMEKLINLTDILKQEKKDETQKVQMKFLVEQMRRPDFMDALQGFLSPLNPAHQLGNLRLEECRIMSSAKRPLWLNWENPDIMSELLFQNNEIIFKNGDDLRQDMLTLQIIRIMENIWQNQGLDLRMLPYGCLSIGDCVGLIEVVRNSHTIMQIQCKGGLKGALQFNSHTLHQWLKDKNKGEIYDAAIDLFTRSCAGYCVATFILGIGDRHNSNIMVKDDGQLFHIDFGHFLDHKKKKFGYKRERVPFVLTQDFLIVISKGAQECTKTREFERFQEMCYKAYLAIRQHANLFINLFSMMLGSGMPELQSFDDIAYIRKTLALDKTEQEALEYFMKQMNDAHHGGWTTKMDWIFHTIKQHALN
Chain of p110α/p85α (P27986 whole entry partner): as the sequence (P27986 whole entry partner) above
Description: PI3K kinases including p110α/p85α, p110δ/p85α and p110γ are purchased from Invitrogen, and p110β/p85α is from Millipore.
Primary screening data and IC50 values are measured using Transcreener™ KINASE Assay (Bellbrook, Catalog #3003-10K). […] It is a universal, homogenous, high throughput screening (HTS) technology using a far-red, competitive fluorescence polarization immunoassay based on the detection of ADP to monitor the activity of enzymes that catalyze group transfer reactions. Briefly, the Transcreener KINASE Assay is designed as a simple two-part, endpoint assay.
In the first step, the 25 ul kinase reaction is performed by preparing a reaction mixture containing 5 ul test compound (2% DMSO final concentration), 10 ul kinase, buffer (50 mM HEPES, 100 mM NaCl, 1 mM EGTA, 0.03% CHAPS, 3 mM MgCl2, and freshly supplemented 1 mM DTT), and 10 ul 30 uM PIP2/10 uM ATP. The plate is sealed and incubated for 80 min at room temperature. Next, 25 ul ADP detection mix is added per well. The plate is sealed again and incubated for 60 min at room temperature, and then measure fluorescence polarization by Tecan Infinite F500 Reader.
Data is analyzed and IC50s are generated using the add-in software for Microsoft Excel, Xlfit™ (version 2.0). IH %=(ADP amount under 2% DMSO-ADP amount under test compound)/ADP amount under 2% DMSO.

Chain of p110β/p85α (P42338 whole entry): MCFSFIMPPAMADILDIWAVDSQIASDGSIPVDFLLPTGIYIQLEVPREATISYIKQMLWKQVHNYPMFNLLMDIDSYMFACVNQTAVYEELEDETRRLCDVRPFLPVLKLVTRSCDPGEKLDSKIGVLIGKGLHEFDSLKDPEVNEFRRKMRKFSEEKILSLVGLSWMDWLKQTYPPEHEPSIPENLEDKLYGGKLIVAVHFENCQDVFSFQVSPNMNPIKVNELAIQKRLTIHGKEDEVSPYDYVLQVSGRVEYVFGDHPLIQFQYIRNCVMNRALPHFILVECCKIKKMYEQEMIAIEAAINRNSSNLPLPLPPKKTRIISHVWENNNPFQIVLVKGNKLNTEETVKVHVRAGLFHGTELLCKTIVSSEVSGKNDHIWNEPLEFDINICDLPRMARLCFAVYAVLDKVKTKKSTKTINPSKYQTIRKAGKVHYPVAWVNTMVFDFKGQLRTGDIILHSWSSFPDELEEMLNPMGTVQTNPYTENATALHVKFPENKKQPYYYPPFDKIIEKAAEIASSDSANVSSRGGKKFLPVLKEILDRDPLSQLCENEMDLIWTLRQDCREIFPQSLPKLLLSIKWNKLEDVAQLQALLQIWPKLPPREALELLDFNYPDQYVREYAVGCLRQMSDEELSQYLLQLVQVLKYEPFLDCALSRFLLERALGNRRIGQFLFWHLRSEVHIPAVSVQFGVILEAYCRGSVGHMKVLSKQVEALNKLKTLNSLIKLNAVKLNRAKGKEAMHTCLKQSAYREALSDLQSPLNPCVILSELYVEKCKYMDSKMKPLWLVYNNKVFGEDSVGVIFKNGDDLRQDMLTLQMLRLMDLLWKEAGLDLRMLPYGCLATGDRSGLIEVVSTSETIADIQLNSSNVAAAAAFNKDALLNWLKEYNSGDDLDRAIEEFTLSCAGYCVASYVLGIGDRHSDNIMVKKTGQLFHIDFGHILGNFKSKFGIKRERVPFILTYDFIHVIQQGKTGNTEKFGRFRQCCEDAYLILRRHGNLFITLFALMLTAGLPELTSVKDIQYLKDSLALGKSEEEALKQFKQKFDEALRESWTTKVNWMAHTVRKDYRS
Chain of p110β/p85α (P27986 2-724 partner): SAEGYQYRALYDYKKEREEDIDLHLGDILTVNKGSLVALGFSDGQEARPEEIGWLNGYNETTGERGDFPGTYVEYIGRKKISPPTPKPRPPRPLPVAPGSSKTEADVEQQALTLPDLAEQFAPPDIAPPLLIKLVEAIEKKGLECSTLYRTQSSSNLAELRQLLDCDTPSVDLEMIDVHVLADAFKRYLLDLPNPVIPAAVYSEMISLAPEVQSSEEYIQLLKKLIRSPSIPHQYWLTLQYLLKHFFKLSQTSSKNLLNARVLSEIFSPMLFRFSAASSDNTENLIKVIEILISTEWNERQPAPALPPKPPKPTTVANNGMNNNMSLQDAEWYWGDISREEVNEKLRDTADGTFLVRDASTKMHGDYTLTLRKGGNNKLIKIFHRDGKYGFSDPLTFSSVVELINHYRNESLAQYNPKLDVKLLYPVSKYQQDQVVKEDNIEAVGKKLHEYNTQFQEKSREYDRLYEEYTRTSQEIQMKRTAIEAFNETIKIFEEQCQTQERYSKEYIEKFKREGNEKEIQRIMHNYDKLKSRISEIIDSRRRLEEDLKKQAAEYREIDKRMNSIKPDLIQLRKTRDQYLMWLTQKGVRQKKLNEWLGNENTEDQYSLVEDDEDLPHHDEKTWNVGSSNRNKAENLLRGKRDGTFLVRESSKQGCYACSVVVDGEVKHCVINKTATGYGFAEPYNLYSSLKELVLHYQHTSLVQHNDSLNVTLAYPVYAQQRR

Row | Structure (SMILES) | PI3Kβ IH % @ 1 uM [1] [%] | IC50 [1] [nM] | IC50 [2] [nM] | PI3Kδ IH % @ 1 uM [3] [%] | IC50 [3] [nM] | PI3Kγ IH % @ 1 uM [4] [%] | IC50 [4] [nM] | PI3Kα IH % @ 1 uM [5] [%] | IC50 ([5]; read-out: PI3Kα IC50) [nM]
1 | C[C@H]1CN(c2ncnc3[nH]cc(C#N)c23)C1c1nn2ccc(Cl)c2c(=O)n1-c1ccccc1 (stereo partly drawn) [Compound 235] | 69.3 | 211 | 71 | >100 | 4 | 96.2 | 12 |  | 
2 | C[S@@+]([O-])c1c[nH]c2ncnc(N3CCC[C@H]3c3nn4ccc(Cl)c4c(=O)n3-c3ccccc3)c12 [Compound 383, 5-chloro-2-((S)-1-(5-((R)-methylsulfinyl)-7H-pyrrolo[2,3-d]pyrimidin-4-yl)pyrrolidin-2-yl)-3-phenylpyrrolo[2,1-f][1,2,4]triazin-4(3H)-one] | 68.7 | 741 |  | 98.8 | 4 | >100 | 17 | 14.7 | 
3 | C[C@H]1CN(c2nc(N)ncc2C#N)C1c1nn2ccc(Cl)c2c(=O)n1-c1ccccc1 (stereo partly drawn) [Compound 431] | 51.3 |  | 85 | 96.2 | 7 | 95.9 | 8 |  | 
4 | Cc1nc(N)nc(N2C[C@H](C)C2c2nn3ccc(F)c3c(=O)n2-c2ccccc2)c1C#N (stereo partly drawn) [Compound 436] | 78.5 | 24 | 37 | >100 | 1 | 98.7 | 2 |  | 
5 | Cc1nc(N)nc(N2C[C@H](C)[C@H]2c2nn3ccc(Cl)c3c(=O)n2-c2cccc(F)c2)c1C#N [Compound 461] | 80.5 | 54 | 18 | >100 | 0.4 | >100 | 7 |  | 
6 | CC(=O)c1cnc(N)nc1N1C[C@H](C)[C@H]1c1nn2ccc(Cl)c2c(=O)n1-c1ccccn1 [Compound 473] | 67.3 | 454 | 36 | >100 | 2 | 97.0 | 10 |  | 921
7 | Cc1nc(N)nc(N2CCC2c2nn3ccc(Cl)c3c(=O)n2-c2ccccn2)c1C#N (stereo not drawn) [Compound 475] | 80.3 | 83 | 94 | 94.9 | 2 | 93.3 | 13 |  | 
8 | CC(=O)c1cnc(N)nc1N1CC[C@H]1c1nn2ccc(C(F)(F)F)c2c(=O)n1-c1ccccc1 [Compound 486, (S)-2-(1-(5-acetyl-2-aminopyrimidin-4-yl)azetidin-2-yl)-3-phenyl-5-(trifluoromethyl)pyrrolo[2,1-f][1,2,4]triazin-4(3H)-one] | 41.5 |  | 51 | >100 | 22 | >100 | 13 |  | 
9 | CC(=O)c1c(N)nc(N)nc1N1C[C@H](C)C1c1nn2ccc(Cl)c2c(=O)n1-c1cccc(F)c1 (stereo partly drawn) [Compound 493] | 73.6 | 250 | 8 | 99.7 | 6 | >100 | 8 |  | 

Continued, values first:

Row | PI3Kβ IH % @ 1 uM [1] [%] | IC50 [1] [nM] | IC50 [2] [nM] | PI3Kδ IH % @ 1 uM [3] [%] | IC50 [3] [nM] | PI3Kγ IH % @ 1 uM [4] [%] | IC50 [4] [nM] | PI3Kα IH % @ 1 uM [5] [%] | IC50 ([5]; read-out: PI3Kα IC50) [nM] | Structure (SMILES)
10 | 79.3 | 223 | 20 | >100 | 4 | >100 | 13 |  |  | CC(=O)c1cnc(N)nc1N1C[C@H](C)[C@H]1c1nn2ccc(Cl)c2c(=O)n1-c1ccccc1 [Compound 301]
11 | 56.4 |  |  | 99.7 |  | 96.7 |  | 9.7 |  | CO/N=C(\C)c1c[nH]c2ncnc(N3CCC[C@H]3c3nn4ccc(Cl)c4c(=O)n3-c3ccccc3)c12 [Compound 308]
12 | 79.4 | 379 |  | >100 |  | >100 | 34 | 10.1 |  | O=c1c2c(Cl)ccn2nc([C@@H]2CCCN2c2ncnc3[nH]cnc23)n1-c1ccccn1 [Compound 311]
13 | 84.4 | 88 |  | 99.0 | 1 | >100 | 33 | 14.1 |  | C[S@+]([O-])c1c[nH]c2ncnc(N3CCC[C@H]3c3nn4ccc(Cl)c4c(=O)n3-c3ccccc3)c12 [Compound 382, 5-chloro-2-((S)-1-(5-((S)-methylsulfinyl)-7H-pyrrolo[2,3-d]pyrimidin-4-yl)pyrrolidin-2-yl)-3-phenylpyrrolo[2,1-f][1,2,4]triazin-4(3H)-one]
14 | 80.5 | 185 | 90 | >100 | 1 | >100 | 5 |  |  | Cc1nc(N)nc(N2C[C@H](C)[C@H]2c2nn3ccc(F)c3c(=O)n2-c2cccc(F)c2)c1C#N [Compound 462]
15 | 77.1 | 374 | 39 | 89.7 | 1 | 94.3 | 5 |  |  | CC(=O)c1cnc(N)nc1N1C[C@H](C)[C@H]1c1nn2ccc(Cl)c2c(=O)n1-c1cccc(F)c1 [Compound 467]
16 | 47.1 |  | 96 | >100 | 3 | 92.4 | 7 |  |  | CC1(C)CN(c2nc(N)ncc2C#N)C1c1nn2ccc(Cl)c2c(=O)n1-c1ccccc1 (stereo not drawn) [Compound 471]
17 | 64.7 |  | 46 | >100 | 6 | >100 | 8 |  |  | Cc1nc(N)nc(N2CC[C@H]2c2nn3ccc(C(F)(F)F)c3c(=O)n2-c2ccccc2)c1C#N [Compound 487]
18 | 63.6 | 296 | 23 | >100 | 3 | >100 | 8 |  |  | CC(=O)c1cnc(N)nc1N1C[C@H](C)[C@H]1c1nn2ccc(C(F)(F)F)c2c(=O)n1-c1ccccc1 [Compound 489]
19 | 50.7 |  | 12 | 97.73 | 30 | >100 | 12 |  |  | CC(=O)c1c(N)nc(N)nc1N1CCC1c1nn2ccc(Cl)c2c(=O)n1-c1ccccc1 (stereo not drawn) [Compound 492]
20 | 18.3 |  | 2 | 34.2 |  | 17.2 |  |  |  | Cc1cc(Cl)c2c(=O)n(-c3ccccc3)c([C@@H]3CCN3c3ncnc4[nH]cnc34)nn12 [Compound 496]
